From paper PMC6205224 (Molecular cell, 2018)

Key:
E. coli D21f2tolC [1] = format: cell-based, Escherichia coli; settings: for cross-resistance of E. coli Lpm-resistant mutants to the compound: chromosomal Lpm-resistant mutants of E. coli D21f2tolC, Fig. 2D; for MICwild-type: wild-type E. coli D21f2tolC, LB broth, 16 h at 37°C, growth inhibited by ≥90%
RNAP clamp = settings: interactions with SW1 and opposite face of SW2; ref Chakraborty et al., 2012; cited from earlier work
human RNAP I/II/III = experiment: Radiochemical RNAP-inhibition assay with HeLa nuclear extract; format: biochemical; settings: Fig. S4C
E. coli D21f2tolC [2] = experiment: Checkerboard interaction assay; format: cell-based, Escherichia coli; settings: combination of Lpm and Rif; checkerboard format; Fig. 2F
[3] = target: E. coli RNAP σ^70 holoenzyme (Escherichia coli, UniProt P0A8T7+P0A8V2); experiment: Fluorescence-detected RNAP-inhibition assay; format: biochemical
[4] = in vivo; cited from earlier work
[5] = target: T. thermophilus RNAP σ^A holoenzyme (Thermus thermophilus, UniProt Q8RQE8+Q8RQE9); experiment: Fluorescence-detected RNAP-inhibition assay; format: biochemical
E. coli strain D21f2tolC = experiment: Colony formation on LB-agar plates containing Lpm; format: cell-based, Escherichia coli; settings: 200 μg/ml ampicillin, 1 mM IPTG, 24-48 h at 37°C
[6] = target: E. coli RNAP σ^70 holoenzyme (Escherichia coli, UniProt P0A8T7+P0A8V2, D284F/E106F); experiment: Single-molecule FRET of RNAP clamp conformation; format: biochemical; settings: 20 μM Lpm; Fig. 4E-F
[7] = target: S. aureus RNAP σ^A holoenzyme (Staphylococcus aureus, UniProt P47768+Q2G0N5); experiment: Fluorescence-detected RNAP-inhibition assay; format: biochemical; settings: Fig. S5
Mtb RNAP σ^A holoenzyme = Mtb RNAP σ^A holoenzyme (Mycobacterium tuberculosis, UniProt P9WGY7+P9WGY9); experiment: Fluorescence-detected RNAP-inhibition assay; format: biochemical

Molecule	cross-resistance of E. coli Lpm-resistant mutants to the compound (E. coli D21f2tolC [1])	MICwild-type (E. coli D21f2tolC [1])	further results
CNC(=O)[C@@H](C)[C@H]1C(=O)/C(=C(O)/C=C/C(C)=C/[C@@H](C)[C@H]2O[C@@]3(C)O[C@H](C=C[C@@]34CO4)[C@@H]2C)C(=O)N1[C@@H]1CC[C@H](O)[C@H](C)O1 [Stl, streptolydigin]	Absence of significant cross-resistance	3.13 µg/mL	
GE23077	Absence of significant cross-resistance	500 µg/mL	
C/C(=C\Cc1ccccc1)CCC(=O)C[C@H]1C[C@H](O)C/C(C)=C/C/C=C/C/C(CC(=O)O)=C\C(=O)O1 [Rip, ripostatin]			effect on RNAP clamp conformation (RNAP clamp): trap a closed-clamp state
salinamide	Absence of significant cross-resistance	0.049 µg/mL	
myxopyronin	Absence of significant cross-resistance	0.20 µg/mL	effect on RNAP clamp conformation (RNAP clamp): trap a closed-clamp state
CCc1c(Cl)c(O)c(Cl)c(O)c1C(=O)O[C@H]1[C@H](O)[C@H](OC)[C@H](OC/C2=C\C=C\C[C@H](O)/C(C)=C/[C@H](CC)[C@@H](O[C@@H]3OC(C)(C)[C@@H](OC(=O)C(C)C)[C@H](O)[C@@H]3O)/C(C)=C/C(C)=C/C[C@@H]([C@@H](C)O)OC2=O)O[C@@H]1C [Lpm, lipiarmycin A3]		1.56 µg/mL	ability to inhibit human RNAP I, II, and III (human RNAP I/II/III): not human RNAP I, II, and III; antibacterial interaction of Lpm and Rif when co-administered (E. coli D21f2tolC [2]): additive antibacterial activity; IC50 [3]: 8 µM; systemic bioavailability [4]: no systemic bioavailability; cross-resistance of E. coli Rif-, GE/PUM-, Sal-, CBR-, and Stl-resistant mutants to Lpm (E. coli D21f2tolC [1]; E. coli D21f2tolC derivatives, Fig. 2E): Absence of significant cross-resistance; IC50 [5]: 200 µM; minimal concentration that prevents colony formation by wild-type transformants (E. coli strain D21f2tolC): 5 µg/mL; effect on RNAP clamp conformation in solution [6]: traps the open-clamp state
NC(=O)CC[C@@H](C(=O)NC[C@H]1O[C@@H](c2c[nH]c(=O)[nH]c2=O)[C@H](O)[C@@H]1O)N(O)C(=O)CN=C(N)N [PUM, pseudoridimycin]	Absence of significant cross-resistance	400 µg/mL	
C/C=C/C/C=C(\C)C(O)CC/C(C)=C/C=C(\C)C(=O)c1c(O)cc([C@H](C)CC/C=C/NC(=O)OC)oc1=O (some centres unmarked) [Cor, corallopyronin]			effect on RNAP clamp conformation (RNAP clamp): trap a closed-clamp state
CO[C@H]1/C=C/O[C@@]2(C)Oc3c(C)c(O)c4c(O)c(c(/C=N/N5CCN(C)CC5)c(O)c4c3C2=O)NC(=O)/C(C)=C\C=C\[C@H](C)[C@H](O)[C@@H](C)[C@@H](O)[C@@H](C)[C@H](OC(C)=O)[C@@H]1C [Rif, rifampin]	Absence of significant cross-resistance	0.20 µg/mL	
ONC(=Nc1ccccc1)c1cccc(C(F)(F)F)c1 [CBR, CBR703]	Absence of significant cross-resistance	6.25 µg/mL	
4"-O-benzyl-Lpm [a1]			potency in inhibiting Escherichia coli RNAP relative to Lpm ([3]; Fig. S5): equal to that of Lpm; potency in inhibiting S. aureus RNAP relative to Lpm [7]: within approximately an order of magnitude of that of Lpm; potency in inhibiting Mtb RNAP relative to Lpm (Mtb RNAP σ^A holoenzyme): within approximately an order of magnitude of that of Lpm
